Two compounds from patent US20240199628A1, “TETRAPYRROLE-BASED COMPOUNDS AND THEIR FOMULATIONS FOR ANTI-MICROBIAL THERAPY” (biolitec Unternehmensbeteiligungs II AG, priority 2021, published 2024) can be followed below.

In test [1] the test system is X2278_C2_B6-IMC (origin Spain, Clade D). Description: A3R5 assay, virus inhibition, HIV-1 IMC X2278_C2_B6. Format: cell-based. As to conditions: 96 h, read-out: anti-HIV-1 effect (inhibition). The protocol:
(§1) Antiviral testing was performed using temoporfin. The organisms studied were replication competent HIV-1 infectious molecular env clones (IMC) in the A3R5 assay. Following IMC were used: (I) 398-71-F6_20-IMC (origin Tansania, Clade A), (II) X2278_C2_B6-IMC (origin Spain, Clade D), (III) 25710_2.43-IMC (origin India, Clade C) and (IV) CNE55-IMC (origin China, Clade […]). Virus specific original env sequences were cloned into the HIV-1 NL4-3 backbone (gene bank ID: M19921) sequence containing a Renilla reniformis luciferase reporter gene to measure the infectivity rate.
(§2) A3R5 cells are grown in RPMI1640 supplemented with 10% fetal calf serum, 25 mM HEPES, 50 μg/ml gentamycine and 1 mg/ml geneticin. […] Within the assay the A3R5 cells were added (plus 5 μg/ml DEAE-Dextran) to the temoporfin samples in the presence of the respective amount of IMC at 50,000 RLU equivalents. After 96 hrs incubation the read out of the A3R5 assays occurred. The decrease of the luminescence compared to the virus control was measured using Victor X3 luminometer (Perkin Elmer) and allowed the detection of a possible inhibitory effect of temoporfin against HIV-1 IMCs.

In test [2] the test system is 25710_2.43-IMC (origin India, Clade C). Kind of test: A3R5 assay, virus inhibition, HIV-1 IMC 25710_2.43. Type of test: cell-based. The following applies: Human immunodeficiency virus 1, 96 h, read-out: inhibition compared to the virus control. On the procedure:
as §1, §2

Test [3] deals with CNE55-IMC (origin China, Clade CRF01_AR). Description: A3R5 assay, virus inhibition, HIV-1 IMC CNE55. Format: cell-based. As to conditions: Human immunodeficiency virus 1, 96 h, read-out: inhibition compared to the virus control. The protocol: as §1, §2
The subject of test [4] is replication competent HIV-1 infectious molecular env clones (IMC). Description: A3R5 assay, all tested HIV-1 IMCs. Type of test: cell-based. The following applies: two independent runs, concentrations of 2.5 μM and 1.25 μM. On the procedure:
as §1, §2

In test [5] the test system is 398-71-F6_20-IMC (origin Tansania, Clade A). Kind of test: A3R5 assay, virus inhibition, HIV-1 IMC 398-71-F6_20. Format: cell-based. The following applies: Human immunodeficiency virus 1, 96 h, read-out: anti-HIV-1 effect (inhibition). The protocol:
as §1, §2

A further test relates to Staphylococcus aureus. Kind of test: Antibacterial testing in submerged cultures (CFU/ml). As to conditions: S. aureus. Type of test: cell-based. The text has this:
The organisms studied were Staphylococcus aureus DSM 1104 and DSM 11729, gram positive, Klebsiella pneumoniae, gram negative, Enterobacter aerogenes, gram negative, and Acinetobacter baumannii, gram negative. For antibacterial testing in submerged cultures cultured cells are suspended in sterile phosphate-buffered saline (PBS), sterile PBS supplemented with 10% sterile horse serum, or sterile PBS supplemented with 10% sheep blood. The bacterial suspensions are placed into sterile black well plates with clear bottoms. Concentrations of photosensitizer used in the study were as follows: 1 μM, 10 μM, 100 μM, and 1 mM. After an incubation time period of 30 minutes, the samples are exposed to white light, with a power density and irradiation time resulting in an energy fluency of about 100 J/cm^2. Control samples contained no photosensitizer and are not exposed to light. The control samples for dark toxicity are only exposed to photosensitizer without any illumination. After irradiation, the samples are removed and suspended again in the culture media. The numbers of colony-forming units (CFU/ml) are enumerated after an adequate incubation time period.

Test [6] deals with Staphylococcus aureus biofilms. Kind of test: Antibacterial testing of bacterial biofilms (CFU/ml). Format: cell-based, Staphylococcus aureus DSM1104. The following applies: S. aureus biofilms (FIG. 1F). On the procedure: For antibacterial testing of bacterial biofilms the 96 pins of a transferable solid phase plates (TSP; Nunc-Immuno™ TSP with MaxiSorp™ surface) were used to generate the biofilms. The TSP plates were transferred in 96-well plates with 200 μl fresh overnight culture of Staphylococcus aureus DSM1104 cells and incubated at 35° C. about 20 hours by gentle shaking. Within this time the bacterial cells established biofilms on the pins. After removing of unattached cells by gentle washing with 250 μl of 0.9% NaCl solution the TSP plates with the biofilms on the pins were incubated with 250 μl of the photosensitizer solution or the solvent of the photosensitizer solution for control samples for 30 minutes in the dark. After incubation and another washing the pins were irradiated by white light, with a power density and irradiation time resulting in an energy fluence of about 100 J/cm^2. For the quantification of remaining attached cells, the pins were transferred into 250 μl of 0.9% NaCl solution by gentle sonication. The samples are removed, suspended in the culture media, and the numbers of colony-forming units (CFU/ml) are enumerated after an adequate incubation time period.

In general, inhibition refers to how much of the control response was suppressed.

For the compound `Oc1cccc(-c2c3nc(c(-c4cccc(O)c4)c4ccc([nH]4)c(-c4cccc(O)c4)c4nc(c(-c5cccc(O)c5)c5ccc2[nH]5)CC4)C=C3)c1` [Temoporfin, 5,10,15,20-tetrakis(3-hydroxyphenyl)chlorin], the inhibition at 2.5 µM amounted to 38% in test [1], 42% in test [2], 22% in test [3] and 35% in test [5]. The anti-HIV activity entry in test [4] was “anti-HIV activity was observed”.
With “[5,10,15,20-tetrakis(3-hydroxyphenyl)porphyrinato]zinc(II)”, the antibacterial activity entry is recorded as “high antibacterial activity” in the test with Staphylococcus aureus (in the absence of light (FIG. 1A)); “activity” with Staphylococcus aureus (in the presence of complex media (serum) (FIG. 1A, middle)); “activity” in the test on Staphylococcus aureus (in the presence of whole blood (FIG. 1A, right)). Moreover, the “antibacterial activity against biofilms” value in test [6] is on record as “active”.
